Values after ≈ are worked out from the molar mass of the structure shown.
Key:
Assay in all cases: in vitro antibacterial evaluation, MIC by broth dilution
Type in all cases: cell-based
Staphylococcus sp. = conditions: broth dilution, 18 hours at 35° C.
Procedure, shortened: (§1)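 Inoculum 5×10^5 CFU/mL; concentrations 64 to 0.06 μg/mL; MIC defined as lowest inhibitory level. Conducted by broth dilution under NCCLS guidelines.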

Streptococcus sp. = conditions: broth dilution, 18 hours at 35° C.
Procedure, shortened: as §1

Enterococcus sp. = conditions: broth dilution, 18 hours at 35° C.
Procedure, shortened: as §1

Escherichia coli = conditions: 18 hours at 35° C.

Question: `CC(c1ccccc1)C1NC(=O)CNC(=O)C(CO)NC(=O)C(CC2CNC(=N)N2C2OC(CO)C(O)C(O)C2O)NC(=O)C(CC2CNC(=N)N2)NC(=O)C(Cc2ccc(OC3OC(CO)C(OC4OC(CO)C(O)C(OCc5ccc(OCc6ccccc6)cc5)C4O)C(O)C3O)cc2)NC1=O` (stereo not shown) [Example 246b] was tested. Which “MIC Coagulase Negative Staphylococcus (GC 4547)” value (Staphylococcus sp.) did it give?
Answer: 64 µg/mL (≈ 43.8 µM)

Question: What about the “MIC Coagulase Negative Staphylococcus (GC 4548)” value (Staphylococcus sp.) of the same compound?
Answer: 64 µg/mL (≈ 43.8 µM)

Question: And the “MIC Coagulase Negative Staphylococcus (GC 4549)” value (Staphylococcus sp.)?
Answer: 32 µg/mL (≈ 21.9 µM)

Question: What about the “MIC Coagulase Negative Staphylococcus (GC 4551)” value (Staphylococcus sp.) of the same compound?
Answer: 64 µg/mL (≈ 43.8 µM)

Question: What about the “MIC Coagulase Negative Staphylococcus (GC 6257)” value (Staphylococcus sp.) of the same compound?
Answer: 64 µg/mL (≈ 43.8 µM)

Question: And the “MIC Staphylococcus aureus (ATCC 29213)” value (Staphylococcus sp.)?
Answer: 64 µg/mL (≈ 43.8 µM)

Question: What about the “MIC Staphylococcus aureus (GC 1131)” value (Staphylococcus sp.) of the same compound?
Answer: 128 µg/mL (≈ 87.7 µM)

Question: What about the “MIC Staphylococcus aureus (GC 3051)” value (Staphylococcus sp.) of the same compound?
Answer: 64 µg/mL (≈ 43.8 µM)

Question: And the “MIC Staphylococcus aureus (GC 3053)” value (Staphylococcus sp.)?
Answer: 128 µg/mL (≈ 87.7 µM)

Question: And the “MIC Staphylococcus aureus (GC 4541)” value (Staphylococcus sp.)?
Answer: 64 µg/mL (≈ 43.8 µM)

Question: What about the “MIC Staphylococcus aureus (GC 4542)” value (Staphylococcus sp.) of the same compound?
Answer: 64 µg/mL (≈ 43.8 µM)

Question: What about the “MIC Staphylococcus aureus (GC 4544)” value (Staphylococcus sp.) of the same compound?
Answer: 64 µg/mL (≈ 43.8 µM)

Question: And the “MIC Staphylococcus aureus (GC 4545)” value (Staphylococcus sp.)?
Answer: 64 µg/mL (≈ 43.8 µM)

Question: What about the “MIC Staphylococcus aureus-SMITH (GC 4543)” value (Staphylococcus sp.) of the same compound?
Answer: 64 µg/mL (≈ 43.8 µM)

Question: What about the “MIC Staphylococcus haemolyticus (GC 4546)” value (Staphylococcus sp.) of the same compound?
Answer: 128 µg/mL (≈ 87.7 µM)

Question: What about the “MIC Staphylococcus aureus (ATCC 29213)” value (Staphylococcus sp.; strain ATCC 29213) of the same compound?
Answer: 64 µg/mL (≈ 43.8 µM)

Question: And the “MIC Staphylococcus aureus (GC 1131)” value (Staphylococcus sp.; strain GC 1131)?
Answer: 128 µg/mL (≈ 87.7 µM)

Question: What about the “MIC Staphylococcus aureus (GC 3051)” value (Staphylococcus sp.; strain GC 3051) of the same compound?
Answer: 64 µg/mL (≈ 43.8 µM)

Question: And the “MIC Staphylococcus aureus (GC 3053)” value (Staphylococcus sp.; strain GC 3053)?
Answer: 128 µg/mL (≈ 87.7 µM)

Question: And the “MIC Staphylococcus aureus (GC 4541)” value (Staphylococcus sp.; strain GC 4541)?
Answer: 64 µg/mL (≈ 43.8 µM)

Question: What about the “MIC Staphylococcus aureus (GC 4542)” value (Staphylococcus sp.; strain GC 4542) of the same compound?
Answer: 64 µg/mL (≈ 43.8 µM)

Question: What about the “MIC Staphylococcus aureus-SMITH (GC 4543)” value (Staphylococcus sp.; strain GC 4543) of the same compound?
Answer: 64 µg/mL (≈ 43.8 µM)

Question: And the “MIC Staphylococcus aureus (GC 4544)” value (Staphylococcus sp.; strain GC 4544)?
Answer: 64 µg/mL (≈ 43.8 µM)

Question: And the “MIC Staphylococcus aureus (GC 4545)” value (Staphylococcus sp.; strain GC 4545)?
Answer: 64 µg/mL (≈ 43.8 µM)

Question: And the “MIC Staphylococcus haemolyticus (GC 4546)” value (Staphylococcus sp.; strain GC 4546)?
Answer: 128 µg/mL (≈ 87.7 µM)

Question: And the “MIC Coagulase Negative Staphylococcus (GC 4547)” value (Staphylococcus sp.; strain GC 4547)?
Answer: 64 µg/mL (≈ 43.8 µM)

Question: And the “MIC Coagulase Negative Staphylococcus (GC 4548)” value (Staphylococcus sp.; strain GC 4548)?
Answer: 64 µg/mL (≈ 43.8 µM)

Question: And the “MIC Coagulase Negative Staphylococcus (GC 4549)” value (Staphylococcus sp.; strain GC 4549)?
Answer: 32 µg/mL (≈ 21.9 µM)

Question: What about the “MIC Coagulase Negative Staphylococcus (GC 4551)” value (Staphylococcus sp.; strain GC 4551) of the same compound?
Answer: 64 µg/mL (≈ 43.8 µM)

Question: And the “MIC Coagulase Negative Staphylococcus (GC 6257)” value (Staphylococcus sp.; strain GC 6257)?
Answer: 64 µg/mL (≈ 43.8 µM)

Question: What about the “MIC Streptococcus agalactiae (GC 4564)” value (Streptococcus sp.) of the same compound?
Answer: 64 µg/mL (≈ 43.8 µM)

Question: What about the “MIC Streptococcus pneumoniae (ATCC 6301)” value (Streptococcus sp.) of the same compound?
Answer: 32 µg/mL (≈ 21.9 µM)

Question: And the “MIC Streptococcus pneumoniae (GC 1894)” value (Streptococcus sp.)?
Answer: 32 µg/mL (≈ 21.9 µM)

Question: What about the “MIC Streptococcus pneumoniae (GC 4565)” value (Streptococcus sp.) of the same compound?
Answer: 64 µg/mL (≈ 43.8 µM)

Question: And the “MIC Streptococcus pyogenes (GC 4563)” value (Streptococcus sp.)?
Answer: 64 µg/mL (≈ 43.8 µM)

Question: And the “MIC Streptococcus pneumoniae (ATCC 6301)” value (Streptococcus sp.; strain ATCC 6301)?
Answer: 32 µg/mL (≈ 21.9 µM)

Question: What about the “MIC Streptococcus pneumoniae (GC 1894)” value (Streptococcus sp.; strain GC 1894) of the same compound?
Answer: 32 µg/mL (≈ 21.9 µM)

Question: And the “MIC Streptococcus pyogenes (GC 4563)” value (Streptococcus sp.; strain GC 4563)?
Answer: 64 µg/mL (≈ 43.8 µM)

Question: What about the “MIC Streptococcus agalactiae (GC 4564)” value (Streptococcus sp.; strain GC 4564) of the same compound?
Answer: 64 µg/mL (≈ 43.8 µM)

Question: And the “MIC Streptococcus pneumoniae (GC 4565)” value (Streptococcus sp.; strain GC 4565)?
Answer: 64 µg/mL (≈ 43.8 µM)

Question: And the “MIC Enterococcus avium (GC 4558)” value (Enterococcus sp.)?
Answer: 64 µg/mL (≈ 43.8 µM)

Question: And the “MIC Enterococcus faecalis (ATCC 29212)” value (Enterococcus sp.)?
Answer: 128 µg/mL (≈ 87.7 µM)

Question: What about the “MIC Enterococcus faecalis (GC 2242)” value (Enterococcus sp.) of the same compound?
Answer: 128 µg/mL (≈ 87.7 µM)

Question: And the “MIC Enterococcus faecalis (GC 2691)” value (Enterococcus sp.)?
Answer: 128 µg/mL (≈ 87.7 µM)

Question: What about the “MIC Enterococcus faecalis (GC 3059)” value (Enterococcus sp.) of the same compound?
Answer: 128 µg/mL (≈ 87.7 µM)

Question: And the “MIC Enterococcus faecalis (GC 4552)” value (Enterococcus sp.)?
Answer: 128 µg/mL (≈ 87.7 µM)

Question: And the “MIC Enterococcus faecalis (GC 4553)” value (Enterococcus sp.)?
Answer: 128 µg/mL (≈ 87.7 µM)

Question: And the “MIC Enterococcus faecalis (GC 4554)” value (Enterococcus sp.)?
Answer: >128 µg/mL

Question: What about the “MIC Enterococcus faecalis (GC 6189)” value (Enterococcus sp.) of the same compound?
Answer: 128 µg/mL (≈ 87.7 µM)

Question: And the “MIC Enterococcus faecium (GC 2243)” value (Enterococcus sp.)?
Answer: 128 µg/mL (≈ 87.7 µM)

Question: And the “MIC Enterococcus faecium (GC 4556)” value (Enterococcus sp.)?
Answer: 128 µg/mL (≈ 87.7 µM)

Question: What about the “MIC Enterococcus faecium (GC 4557)” value (Enterococcus sp.) of the same compound?
Answer: 32 µg/mL (≈ 21.9 µM)

Question: And the “MIC Enterococcus faecalis (ATCC 29212)” value (Enterococcus sp.; strain ATCC 29212)?
Answer: 128 µg/mL (≈ 87.7 µM)

Question: What about the “MIC Enterococcus faecalis (GC 2242)” value (Enterococcus sp.; strain GC 2242) of the same compound?
Answer: 128 µg/mL (≈ 87.7 µM)

Question: And the “MIC Enterococcus faecium (GC 2243)” value (Enterococcus sp.; strain GC 2243)?
Answer: 128 µg/mL (≈ 87.7 µM)

Question: And the “MIC Enterococcus faecalis (GC 2691)” value (Enterococcus sp.; strain GC 2691)?
Answer: 128 µg/mL (≈ 87.7 µM)

Question: And the “MIC Enterococcus faecalis (GC 3059)” value (Enterococcus sp.; strain GC 3059)?
Answer: 128 µg/mL (≈ 87.7 µM)

Question: And the “MIC Enterococcus faecalis (GC 4552)” value (Enterococcus sp.; strain GC 4552)?
Answer: 128 µg/mL (≈ 87.7 µM)

Question: What about the “MIC Enterococcus faecalis (GC 4553)” value (Enterococcus sp.; strain GC 4553) of the same compound?
Answer: 128 µg/mL (≈ 87.7 µM)

Question: And the “MIC Enterococcus faecalis (GC 4554)” value (Enterococcus sp.; strain GC 4554)?
Answer: >128 µg/mL

Question: What about the “MIC Enterococcus faecium (GC 4556)” value (Enterococcus sp.; strain GC 4556) of the same compound?
Answer: 128 µg/mL (≈ 87.7 µM)

Question: And the “MIC Enterococcus faecium (GC 4557)” value (Enterococcus sp.; strain GC 4557)?
Answer: 32 µg/mL (≈ 21.9 µM)

Question: What about the “MIC Enterococcus avium (GC 4558)” value (Enterococcus sp.; strain GC 4558) of the same compound?
Answer: 64 µg/mL (≈ 43.8 µM)

Question: What about the “MIC Enterococcus faecalis (GC 6189)” value (Enterococcus sp.; strain GC 6189) of the same compound?
Answer: 128 µg/mL (≈ 87.7 µM)

Question: What about the “MIC Escherichia coli (ATCC 25922)” value (Escherichia coli) of the same compound?
Answer: >128 µg/mL

Question: And the “MIC Escherichia coli (GC 4559)” value (Escherichia coli)?
Answer: >128 µg/mL

Question: What about the “MIC Escherichia coli (GC 4560)” value (Escherichia coli) of the same compound?
Answer: 32 µg/mL (≈ 21.9 µM)
